In ChEMBL document CHEMBL1201862, “PubChem BioAssay data set” (2004):
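Cells were grown in 96-well plates and exposed to each compound for 48 hours at five concentrations; endpoints were interpolated linearly between bracketing concentrations, or set to the highest concentration if not reached. At the GI50, growth is halved.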 Activity calls are given as the source filed them. Rule as the data show it: active = GI50 up to about 1.1 µM and inactive = higher.

Key:
Assay in all cases: growth of human tumour cells (NCI), 48 h
CAKI-1 = test system: CAKI-1
OVCAR-4 = test system: OVCAR-4
DU-145 = test system: DU-145
SK-MEL-2 = test system: SK-MEL-2
CCRF-CEM = test system: CCRF-CEM
MDA-MB-231 = test system: MDA-MB-231
OVCAR-3 = test system: OVCAR-3
KM12 = test system: KM12
SW-620 = test system: SW-620
SF-295 = test system: SF-295
OVCAR-8 = test system: OVCAR-8
MOLT-4 = test system: MOLT-4
K562 = test system: K562
T47D = test system: T47D
UO-31 = test system: UO-31
HOP-62 = test system: HOP-62
TK-10 = test system: TK-10
U-251 = test system: U-251
UACC-257 = test system: UACC-257
SK-MEL-28 = test system: SK-MEL-28

Measured: GI50

COC(=O)[C@](NC(=O)OCc1ccccc1)([C@@H](C)[S+]([O-])c1ccc(C)cc1)C(F)(F)F (stereo not given in full)
inactive: CAKI-1 41 µM | OVCAR-4 20.8 µM | DU-145 38.2 µM | SK-MEL-2 19.5 µM | CCRF-CEM 22.8 µM | MDA-MB-231 59.6 µM | OVCAR-3 43.7 µM | KM12 29.3 µM | SW-620 53.2 µM | SF-295 32.7 µM | OVCAR-8 35.2 µM | MOLT-4 18.7 µM | K562 34.4 µM | T47D 35.8 µM | UO-31 27.7 µM | HOP-62 > 100 µM | TK-10 21.5 µM | U-251 36.8 µM | UACC-257 24.8 µM | SK-MEL-28 62.7 µM

CCOC(=O)C(=O)NNc1nc2c(s1)C(=O)c1ccccc1C2=O
inactive: CAKI-1 20.3 µM | OVCAR-4 1.85 µM | DU-145 17.7 µM | SK-MEL-2 3.95 µM | CCRF-CEM 2.34 µM | MDA-MB-231 2.48 µM | OVCAR-3 1.88 µM | KM12 9.27 µM | SW-620 2.58 µM | SF-295 5.01 µM | OVCAR-8 1.97 µM | MOLT-4 3.33 µM | K562 2.3 µM | T47D 17.8 µM | UO-31 2.29 µM | HOP-62 10.8 µM | TK-10 24.5 µM | U-251 7.06 µM | UACC-257 1.71 µM | SK-MEL-28 3.06 µM
